Laboratory results taken from patent publication US20050176619A1, “Antitumoral formulations of thioxanthenone” (priority 2001, published 2005).
≈ marks a conversion by molar mass, not a printed value.

Tests used:
[1] = Solubility in water; format: physicochemical
From the text: (§1) It is desirable in the treatment of tumors and cancers to provide the active pharmaceutical ingredient as a ready-to-use (RTU) solution formulation which is pharmaceutically stable over prolonged periods of storage. […] Accordingly, it is an object of the present invention to overcome these difficulties by providing a stable solution formulation of N-[[1-[[2-(diethylamino)ethyl]amino]-7-methoxy-9-oxothioxanthen-4-yl]methyl]formamide, or a pharmaceutically acceptable acid-addition salt thereof, in ready-to-use form.

[2] = Stability under acidic conditions; format: physicochemical
From the text: as §1

- solubility [1]: 100 µg/mL (≈ 242 µM)
- stability under acidic conditions [2]: unstable under acidic conditions
SMILES: CCN(CC)CCNc1ccc(CNC=O)c2sc3ccc(OC)cc3c(=O)c12 [N-[[1-[[2-(diethylamino)ethyl]amino]-7-methoxy-9-oxothioxanthen-4-yl]methyl]formamide]
